26 molecules from patent US12441774B2, “Molecular guide system peptides and uses thereof” (SRI International, priority 2017, dated 2025) can be followed below.

Experiment [1] deals with non-small cell lung cancer cells. Nature of the experiment: Cellular location of MGS, non-small cell lung cancer cells. It is filed as cell-based. The following applies: Intracellular = uptake confirmed, exact compartment not determined. From the text:
(§1) The FOX-Three Platform has already been validated for targeting of cells and subcellular components. A number of validated MGSs are in various stages of development (Tables 1 and 2) for a variety of cell targeting systems. Methods of conjugating a variety of payloads to the peptide MGSs have been established without disrupting their targeting ability. […] While cell targeting has been established and there are a number of competing antibody-based technologies for targeting the surfaces of target cells, intracellular MGSs were not previously known. […] For example, delivery of a MAb intended to bind to proteins involved in DNA replication in the cell nucleus will be therapeutically ineffective if trapped in the Golgi or other locations in the cell. The FOX-Three screening process was recently refined to include subcellular location targeting as a selection criteria. MGSs have been isolated that accumulate in lysosomes, autophagosomes, and Golgi inside cancer cells, as well as target the plasma membrane (FIG. 3).

The test system of another experiment is Lymphoma Cells. Nature of the experiment: Cellular location of MGS, lymphoma cells. It is filed as cell-based.
Excerpt: as §1

A further experiment has as its system Cardiomyocytes. The experiment in a line: Cellular location of MGS, cardiomyocytes. It is filed as cell-based. The following applies: Intracellular = uptake confirmed, exact compartment not determined.
Excerpt: as §1

Another experiment concerns viable cells in culture. Nature of the experiment: Cellular uptake of MGS-conjugated MAb (flow cytometry). In kind it is cell-based. On the procedure: Peptide MGS with a biotin tag (“handle”) was coupled to an anti-biotin antibody. The antibody was labeled with a fluorescent tag. Panel A. MGS peptide-antibody was incubated with viable cells in culture. Uptake of the antibody into the cells was determined by flow cytometry and normalized to antibody uptake with no MGS peptide. Panel B. Uptake of the antibody was determined by fluorescent microscopy and is indicated by red “dots” in the left panel. The MGS peptide can deliver the antibody to the desired location. Using a MGS peptide that internalizes and directs cargo to the Golgi apparatus in the cell, an antibody was delivered to that subcellular compartment. Panel C. MGS peptide-Antibody was injected I.V. into a tumor bearing mouse. At set times points, near-infrared imaging was used to determine uptake of the antibody in the tumor.
A small peptidic-MGS delivers a large monoclonal antibody into a cell in vitro and in vivo. Small peptides would not be able to carry a MAb that is almost greater than 60-times its molecular weight. Cells were treated with a MAb alone and no cellular uptake occurred. But when that MAb was conjugated to one of the identified MGS peptides, a […] increase in cellular uptake was seen.
Peptidic-MGSs can deliver a MAb and increases cellular uptake by 20-380 (FIG. 4A). Peptidic-MGS can deliver a MAb to a discrete subcellular location as dictated by the MGS. […]
A general note: Flow cytometry measures light scatter and fluorescence of single cells or particles in a stream.

A further experiment concerns cancer cell. Nature of the experiment: Delivery of cell impermeable protein-toxin, cancer cell death. It is filed as cell-based. The following applies: peptide delivering a cell impermeable protein-toxin. From the text:
(§2) The peptide EHPWFNMWSWATQVQE (SEQ ID NO:38) (H2009.2) has been pushed forward first.

Experiment [2] relates to non-small cell lung cancer cells. The experiment in a line: Binding to non-small cell lung cancer cells versus normal control cells. In kind it is cell-based.
Excerpt: as §2

For a further experiment, the system named is Dendritic Cells. Nature of the experiment: Cellular location of MGS, dendritic cells. In kind it is cell-based. Conditions: Intracellular = uptake confirmed, exact compartment not determined.
Excerpt: as §1

The test system of another experiment is cellular receptor. Nature of the experiment: Receptor recycle vs new receptor synthesis in MGS internalization. It is filed as cell-based.
For a further experiment, the system named is NSCLC cell lines. Nature of the experiment: Cellular uptake kinetics of valency versions of HCC15.2. In kind it is cell-based. The following applies: 4 NSCLC cell lines.
Experiment [3] has as its target T1, EphA2 (Homo sapiens, UniProt P29317).
T1 construct: endogenous in cells
The experiment in a line: MGS_H1299.2 V4 binding to purified EphA2. The following applies: EphA2 study. From the text:
(§3) The cellular receptor for MGS_H1299.2 v4 is EphA2. The following results were obtained during a study on EphA2.

In experiment [4] the target is T1, EphA2. The experiment in a line: EphA2 dependence of MGS_H1299.2 V4 cell binding and internalization. It is filed as cell-based.
Excerpt: as §3

“Also recorded” adds a separate entry of the source. Where a SMILES comes first, the peptide text is derived from it. Primed or numbered codes have the meaning given here. Where no end group is shown, it is not given here. [ ]: non-standard residue; d: D form. PEG11 = NCCOCCOCCOCCOCCOCCOCCOCCOCCOCCOCCOCCC(=O)O; PEG11′ = not defined here

T1 sequence (P29317 24-976, species assumed): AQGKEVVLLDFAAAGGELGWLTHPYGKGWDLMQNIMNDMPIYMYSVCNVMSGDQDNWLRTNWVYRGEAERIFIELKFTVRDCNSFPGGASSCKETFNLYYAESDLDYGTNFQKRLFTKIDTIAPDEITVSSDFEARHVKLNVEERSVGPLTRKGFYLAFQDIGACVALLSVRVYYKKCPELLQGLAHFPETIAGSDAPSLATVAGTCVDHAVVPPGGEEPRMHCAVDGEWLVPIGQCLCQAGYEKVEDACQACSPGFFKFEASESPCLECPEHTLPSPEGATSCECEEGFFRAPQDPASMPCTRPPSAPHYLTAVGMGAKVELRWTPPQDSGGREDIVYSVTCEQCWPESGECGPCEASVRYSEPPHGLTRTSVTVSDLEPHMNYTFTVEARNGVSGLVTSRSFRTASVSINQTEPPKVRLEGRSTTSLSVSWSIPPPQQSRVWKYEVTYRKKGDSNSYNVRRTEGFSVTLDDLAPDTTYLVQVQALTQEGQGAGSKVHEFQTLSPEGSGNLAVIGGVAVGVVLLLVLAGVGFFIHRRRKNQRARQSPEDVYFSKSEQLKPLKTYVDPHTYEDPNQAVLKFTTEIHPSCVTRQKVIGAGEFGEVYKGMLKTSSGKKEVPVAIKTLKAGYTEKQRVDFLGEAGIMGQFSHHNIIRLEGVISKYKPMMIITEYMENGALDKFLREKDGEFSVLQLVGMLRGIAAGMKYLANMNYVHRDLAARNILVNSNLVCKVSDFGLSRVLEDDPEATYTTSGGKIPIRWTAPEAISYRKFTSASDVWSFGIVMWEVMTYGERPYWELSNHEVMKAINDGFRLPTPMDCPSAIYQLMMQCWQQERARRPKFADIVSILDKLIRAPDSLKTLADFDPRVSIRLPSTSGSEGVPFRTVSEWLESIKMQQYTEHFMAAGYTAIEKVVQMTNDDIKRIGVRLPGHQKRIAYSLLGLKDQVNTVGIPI

Consider EAMNSAEQSAAVVQWEKRRI [MGS_H460.1], for which the “Cellular Location” value in experiment [1] is listed as “MGS_H460.1_PlasmaMembrane”.

As for MDGATWWTQLDPLLVWEGET [MGS_H1993.5], the “Cellular Location” value in experiment [1] is reported as “MGS_H1993.5_Intracellular”.

WLSEAGPVVTVRALRGTGSW [MGS_PCM.1]: the “Cellular Location” value with Lymphoma Cells is “MGS_PCM.1_Plasma Membrane”; with Cardiomyocytes, “MGS_PCM.1_Intracellular”.

Turning to ATEPRKQYATPRVFWTDAPG [MGS_HCC15.1], the “Cellular Location” value in experiment [1] is “MGS_HCC15.1_Intracellular”.

With AHTIDDEWASYHMQQWNSPP [MGS_H2009.4], the “Cellular Location” value in experiment [1] is reported as “MGS_H2009.4_Golgi/ER”.

Turning to SAKTAVSQRVWLPSHRGGEP [MGS_A20.1], the “Cellular Location” value with Lymphoma Cells is “MGS_A20.1_PlasmaMembrane”.

As to EHPWFNMWSWATQVQE [MGS_H2009.2], in the experiment with viable cells in culture, the “intracellular delivery of MAb” value was “delivers a MAb intracellularly”. The “potency to induce cell death” value with cancer cell was found to be 0.08 µM. In addition, the cell binding specificity result in experiment [2] is reported as “binds to 3 different non-small cell lung cancer cells with minimal binding to normal control cells”. Moreover, in experiment [1], the “Cellular Location” value is listed as “MGS_H2009.2_Lysosome”.

Turning to GPEDTSRAPENQQKTFHRRW [MGS_XS52.1], the “Cellular Location” value with Dendritic Cells was “MGS_XS52.1_Intacellular”.

As to QEALEEWFWKMMPWSGPSGQ [MGS_H1993.3], the “Cellular Location” value in experiment [1] is “MGS_H1993.3_Intracellular”.

As to SVEYWGERMYYDVMESLGFS [MGS_H1993.1], in [1], the “Cellular Location” value is given as “MGS_H1993.1_Lysosome”.

For SADWFQGPAEWLLEGWMGPL [MGS_H1993.6], in experiment [1], the “Cellular Location” value was “MGS_H1993.6_Intracellular”.

With KSREHVNNSACPSKRITAAL [MGS_A20.2], in the experiment on Lymphoma Cells, the “Cellular Location” value is recorded as “MGS_A20.2_Plasma Membrane”.

On to “CH3CO—RGDLATLRQL—PEG11—YC—NH2 (Ac-RGDLATLRQL[PEG11′]YC-NH2) [MGS_H2009.1 v4]”, for which the “fate of the bound cellular receptor upon internalization” value with cellular receptor is “rapidly recycled back to the cell surface”.

Consider “CH3CO—FHAVPQSFYT—PEG11—C—NH2 (Ac-FHAVPQSFYT[PEG11′]C-NH2) [HCC15.2 v8]”, for which the “fate of the bound cellular receptor upon internalization” value in the experiment on cellular receptor is “primarily degraded upon internalization”.

In the case of TWTDFGQWPWPFGAEGTRAF [MGS_H1993.4], the “Cellular Location” value in experiment [1] is recorded as “MGS_H1993.4_Pre-mitotic cells only”.

On to FEEFYSRQSNTIPYPQQYKG [MGS_H2009.5], for which, in [1], the “Cellular Location” value was “MGS_H2009.5_ER/Lysosome”.

Consider YPGSPTQYPSSMHEYHSSSE [MGS_H2009.3], for which the “Cellular Location” value in experiment [1] is on record as “MGS_H2009.3_Lysosome”.

In the case of “LQWRRDDNVHNFGVWARYRL (Ac-LQWRRDDNVHNFGVWARYRL) [MGS_1299.3]”, in experiment [1], the “Cellular Location” value is recorded as “MGS_1299.3_Lysosome/; also recorded: Autophagosomes”.

On to FHAVPQSFYTAP [MGS_HCC15.2], for which the “Cellular Location” value in [1] is reported as “MGS_HCC15.2_Intracellular”. The “change of peptide affinity with valency” value in the experiment with NSCLC cell lines (dimer) is “significant enhancement of peptide affinity with dimerization”; in the experiment with NSCLC cell lines (tetramer) it was “modest improvement upon tetramerization”.

In the case of FAAKRAEWWDPGQLWDAVWN [MGS_H1993.2], in [1], the “Cellular Location” value is on record as “MGS_H1993.2_Intracellular”.

For MTVCNASQRQAHAQATAVSL [MGS_A549.1], the “Cellular Location” value in experiment [1] is given as “MGS_A549.1_Intracellular”.

On to RGDLATLRQLAQEDGVVGVR [MGS_H2009.1], for which, in [1], the “Cellular Location” value is recorded as “MGS_H2009.1_Golgi”.

“CH3CO—LQWRRNFGVWARYRL—PEG11—C—NH2 (Ac-LQWRRNFGVWARYRL[PEG11′]C-NH2) [HCC15.1 v4]”: the “fate of the bound cellular receptor upon internalization” value in the experiment with cellular receptor is listed as “primarily degraded upon internalization”.

Regarding `CC(=O)N[C@@H](Cc1ccc(O)cc1)C(=O)N[C@@H](C)C(=O)N[C@@H](C)C(=O)N[C@@H](Cc1c[nH]c2ccccc12)C(=O)N1CCC[C@H]1C(=O)N[C@@H](C)C(=O)N[C@@H](CO)C(=O)NCC(=O)N[C@@H](C)C(=O)N[C@@H](Cc1c[nH]c2ccccc12)C(=O)N[C@H](C(=O)NCCOCCOCCOCCOCCOCCOCCOCCOCCOCCOCCOCCC(=O)N[C@@H](CS)C(N)=O)[C@@H](C)O` [MGS_H1299.2 V4, CH3CO—YAAWPASGAWT—PEG11—C—NH2] (Ac-YAAWPASGAWT[PEG11]C-NH2), on EphA2 [3], the “competition with EprhrinA1 for binding” value is “compete for binding”. For the same molecule, in the experiment with cellular receptor, the “fate of the bound cellular receptor upon internalization” value was “primarily degraded upon internalization”. On EphA2 [4], the “EphA2 internalization and co-localization” value is “induces EphaA2 internalization and co-localizes with the receptor in lysosome”. Further, the figures for the “peptide binding to cells” value at EphA2 [4] (increasing EphA2 in cells) and at EphA2 [4] (reduction of EphA2 in cells) were “increases MGS_H1299.2 V4 binding” and “abrogates MGS_H1299.2 V4 binding”, respectively.

For YAAWPASGAWTGTAPCSAGT [MGS_H1299.2], the “Cellular Location” value in experiment [1] is “MGS_H1299.2_Intracellular”.

Regarding VSQTMRQTAVPLLWFWTGSL [MGS_H1299.1], in [1], the “Cellular Location” value is “MGS_H1299.1_Intracellular”.
